Values of other authors as cited in PMC9516332 (Frontiers in Oncology, 2022).

Columns and labels:
[1] = molecular target: panel of 255 wild-type kinases (Homo sapiens, UniProt Q16620); conditions: kinase TRKB; 1 µmol/L single concentration; ref DOI: 10.1371/journal.pone.0092146; cited from earlier work
[2] = molecular target: T1, panel of 255 wild-type kinases (Homo sapiens, UniProt P52333); conditions: kinase JAK3; 1 µmol/L single concentration; ref DOI: 10.1371/journal.pone.0092146; cited from earlier work
T1 sequence (P52333 1-1124): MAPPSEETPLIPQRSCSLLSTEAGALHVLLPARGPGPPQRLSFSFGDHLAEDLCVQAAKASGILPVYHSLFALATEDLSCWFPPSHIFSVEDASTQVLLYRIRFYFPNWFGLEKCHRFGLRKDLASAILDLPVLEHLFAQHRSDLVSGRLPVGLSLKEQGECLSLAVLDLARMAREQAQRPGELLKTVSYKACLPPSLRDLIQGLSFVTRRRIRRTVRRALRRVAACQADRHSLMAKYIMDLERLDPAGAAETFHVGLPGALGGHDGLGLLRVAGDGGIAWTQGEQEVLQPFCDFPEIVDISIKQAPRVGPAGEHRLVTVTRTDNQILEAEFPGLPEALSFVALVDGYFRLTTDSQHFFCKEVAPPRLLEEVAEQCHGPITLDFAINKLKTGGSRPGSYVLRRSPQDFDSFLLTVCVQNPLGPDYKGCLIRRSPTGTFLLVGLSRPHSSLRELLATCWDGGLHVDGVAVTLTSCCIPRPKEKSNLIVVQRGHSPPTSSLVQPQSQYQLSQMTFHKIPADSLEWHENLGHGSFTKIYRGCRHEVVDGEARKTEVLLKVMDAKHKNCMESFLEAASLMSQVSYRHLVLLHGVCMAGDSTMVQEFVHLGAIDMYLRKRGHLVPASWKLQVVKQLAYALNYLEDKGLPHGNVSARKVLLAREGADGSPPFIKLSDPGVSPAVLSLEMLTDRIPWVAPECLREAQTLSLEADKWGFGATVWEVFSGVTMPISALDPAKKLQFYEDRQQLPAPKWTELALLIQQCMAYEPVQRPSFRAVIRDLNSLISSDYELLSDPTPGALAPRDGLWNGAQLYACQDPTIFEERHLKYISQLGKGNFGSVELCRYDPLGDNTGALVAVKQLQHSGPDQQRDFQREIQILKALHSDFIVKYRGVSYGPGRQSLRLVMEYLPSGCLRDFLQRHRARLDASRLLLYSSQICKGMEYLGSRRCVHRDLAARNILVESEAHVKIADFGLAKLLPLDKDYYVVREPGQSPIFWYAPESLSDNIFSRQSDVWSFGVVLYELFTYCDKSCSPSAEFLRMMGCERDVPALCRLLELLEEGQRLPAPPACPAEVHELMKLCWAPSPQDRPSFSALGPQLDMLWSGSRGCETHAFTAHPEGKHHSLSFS

[3] = molecular target: T2, panel of 255 wild-type kinases (Homo sapiens, UniProt Q14164); conditions: kinase IKKε; 1 µmol/L single concentration; ref DOI: 10.1371/journal.pone.0092146; cited from earlier work
T2 sequence (Q14164 1-716): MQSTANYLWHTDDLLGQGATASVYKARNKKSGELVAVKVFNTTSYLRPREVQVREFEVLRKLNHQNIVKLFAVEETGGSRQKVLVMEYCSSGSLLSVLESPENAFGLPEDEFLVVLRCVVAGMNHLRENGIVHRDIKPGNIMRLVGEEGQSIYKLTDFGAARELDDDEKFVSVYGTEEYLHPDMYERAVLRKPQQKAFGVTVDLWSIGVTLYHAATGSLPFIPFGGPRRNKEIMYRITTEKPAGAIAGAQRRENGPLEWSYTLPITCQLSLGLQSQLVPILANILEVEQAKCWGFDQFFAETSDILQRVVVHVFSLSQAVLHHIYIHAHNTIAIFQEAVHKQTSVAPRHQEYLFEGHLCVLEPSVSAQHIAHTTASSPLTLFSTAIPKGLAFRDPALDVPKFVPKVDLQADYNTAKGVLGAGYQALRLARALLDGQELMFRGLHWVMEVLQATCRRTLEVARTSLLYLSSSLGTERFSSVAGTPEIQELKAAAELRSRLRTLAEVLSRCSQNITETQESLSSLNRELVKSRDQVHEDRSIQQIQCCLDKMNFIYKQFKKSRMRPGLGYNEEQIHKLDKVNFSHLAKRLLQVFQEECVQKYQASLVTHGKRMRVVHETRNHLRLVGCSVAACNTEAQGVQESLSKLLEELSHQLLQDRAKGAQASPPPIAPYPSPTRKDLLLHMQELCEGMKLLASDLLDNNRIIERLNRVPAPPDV

[4] = molecular target: panel of 255 wild-type kinases (Homo sapiens, UniProt P06239); conditions: kinase LCK; 1 µmol/L single concentration; ref DOI: 10.1371/journal.pone.0092146; cited from earlier work
[5] = molecular target: panel of 255 wild-type kinases (Homo sapiens, UniProt Q05397); conditions: kinase FAK; 1 µmol/L single concentration; ref DOI: 10.1371/journal.pone.0092146; cited from earlier work
[6] = molecular target: panel of 255 wild-type kinases (Homo sapiens, UniProt P42685); conditions: kinase FRK; 1 µmol/L single concentration; ref DOI: 10.1371/journal.pone.0092146; cited from earlier work
[7] = molecular target: panel of 255 wild-type kinases (Homo sapiens, UniProt P42684); conditions: ARG kinase assay; 1 µmol/L single concentration; ref DOI: 10.1371/journal.pone.0092146; cited from earlier work
[8] = molecular target: panel of 255 wild-type kinases (Homo sapiens, UniProt O14578); conditions: kinase CRIK; 1 µmol/L single concentration; ref DOI: 10.1371/journal.pone.0092146; cited from earlier work
[9] = molecular target: panel of 255 wild-type kinases (Homo sapiens, UniProt P06213); conditions: kinase INSR; 1 µmol/L single concentration; ref DOI: 10.1371/journal.pone.0092146; cited from earlier work

For CCCS(=O)(=O)Nc1ccc(F)c(C(=O)c2c[nH]c3ncc(-c4ccc(Cl)cc4)cc23)c1F [vemurafenib], the “%-inhibition at 1 µmol/L, TRKB” value [1] is given as 11%, the “%-inhibition at 1 µmol/L, JAK3” value [2] is given as 10% and the “%-inhibition at 1 µmol/L, IKKε” value [3] is given as -9%. For the same molecule, the “%-inhibition at 1 µmol/L, LCK” value [4] was 81%, the “%-inhibition at 1 µmol/L, FAK” value [5] was -3.55% and the “%-inhibition at 1 µmol/L, FRK” value [6] was 62%. For the same molecule, the “%-inhibition ARG” value [7] was 7%, the “%-inhibition at 1 µmol/L, CRIK” value [8] was -6% and the “%-inhibition at 1 µmol/L, INSR” value [9] was 17%.
